From patent US20070271620A1, “Animal model for type II diabetes mellitus and Syndrome X and methods and uses thereof” (priority 2005, published 2007)
“And” between values parts separate entries of the source, which are not always exact repeats. Equal values may be shown once. Marks after values point to notes of the source that are not given here.

Columns and labels:
[1] = tested on: cross-bred pigs (Yorkshire×Landrace); assay: Induction of diabetes by streptozotocin infusion in pigs: fasting plasma glucose, food intake, urinary glucose and ketones; type: in vivo, pig
Protocol: Experimental protocols describing the management, surgical procedures, and animal care were reviewed and approved by the ASG-Lelystad Animal Care and Use Committee (Lelystad, NL). Thirty-six cross-bred pigs (Yorkshire×Landrace) of approximately 30 kg BW at surgery were used in this study. Two weeks before surgery, the pigs were housed in metabolism cages (1.15×1.35 m) and adapted to the fight/dark cycle and the feeding regimen. Lights were on and off at 05:00 and 22:00 hours, respectively. Ambient room temperature was 20° C.
STZ (Pharmacia & Upjohn Company, Kalamazoo, Mich., USA) was dissolved in saline (1 g/10 mL) and administrated to pigs via the jugular vein by a continuous infusion over 30 minutes. STZ treatment (110, 130 or 150 mg/kg) was initiated four to five hours after the morning meal. During the first three days after STZ treatment, food was offered ad libitum in order to avoid hypoglycemia (Gäbel et al., 1985; Grussner et al., 1993). Over the following four days, the food was offered still ad libitum but now from 06:00 to 7:00 and from 15:00 to 16:00 hours to evaluate the food intake capacity in relation to 24-hour urinary glucose excretion of diabetic pigs. This was done first, to be sure that diabetic pigs consume their meals at the iso-energetic level of 1045 kJ ME/kg BW^0.75 per day and second, to underline the importance of iso-energetic feeding when 24-hour urinary glucose excretion is used as one of the parameters to quantify the efficacy of metformin in diabetic pigs. On day 8 post-STZ treatment, pigs were fed on a restricted and iso-energetic level of 1045 kJ ME/kg BW^0.75 per day throughout the study.
Plasma insulin concentration was measured using a Delfia assay (test kit No. B080-1101 by Perkin Elmer Life Sciences, trust by Wallac Oy, Turku, Finland). This specific pig insulin assay was validated using pig insulin standards. Plasma and urine glucose concentrations were analyzed enzymically on an autoanalyzer of Radiometer (ABL and AML, Copenhagen, Denmark). Urine was collected in buckets containing 0.5 grams Halamid-d (sodium-p-toluenesulfonchloramide, Akzo Nobel Chemicals, Amersfoort, NL) to prevent microbial breakdown of glucose. Urine volume was registered over a given interval in order to calculate the rate of urinary glucose excretion. Urine samples (0.5 mL) were stored at −20° C. for later glucose analyses. Ketones (acetoacetic acid) were determined in fresh urine by a reagent strip test (Ketostix, Bayer Diagnostics, Mijdrecht, NL).

[2] = tested on: cross-bred pigs (Yorkshire×Landrace); assay: Hyperinsulinemic euglycemic/hyperglycemic clamp in STZ diabetic pigs; type: in vivo, pig
Protocol: Protocol 2: insulin-mediated hepatic glucose production and whole body glucose uptake were studied with the hyperinsulinemic (1 or 2 mU/kg/minute) euglycemic clamp technique in combination with 6,6-^2H-glucose infusion in six normal and seven STZ (130 mg/kg) diabetic pigs.
Protocol 3: insulin-mediated whole body glucose disposal was studied with the hyperinsulinemic (2 or 8 mU/kg/minute) euglycemic clamp technique in six normal and six STZ (150 mg/kg) diabetic pigs.
Protocol 4: insulin-mediated whole body glucose disposal under influence of acute mass action of plasma glucose was studied with the hyperinsulinemic (2 mU/kg/minute), euglycemic (6 mmol/L) and hyperglycemic (22 mmol/L) clamp technique in four STZ (110 mg/kg) diabetic pigs.
After overnight fasting, at t=0 minute, insulin was administered as a prime—(17 or 34 mU/kg) continuous (1 or 2 mU/kg/minute) infusion for three hours in normal pigs. Simultaneously, a variable infusion of a 33% D-glucose solution was started and adjusted every ten minutes to maintain the plasma glucose concentration at euglycemic levels and a 6,6-^2H-glucose solution was given as a prime—(216 mg) continuous (3.6 mg/minute). Steady-state conditions were achieved within 90 minutes after initiation of the hyperinsulinemic clamp and steady-state calculations were carried out during the last hour of the clamp (t=120, 135, 150, 165 and 180 minutes). In hyperglycemic diabetic pigs, insulin was given as a prime—(34 or 136 mU/kg) continuous (2 or 8 mU/kg/minute) infusion for five hours. After reaching euglycemic levels, a variable infusion of a 33% D-glucose solution was started and adjusted every ten minutes to maintain the plasma glucose concentration at euglycemia. At t=2 hours, 6,6-^2H-glucose was administered as a prime— (216 mg) continuous (3.6 mg/minute) infusion for the last three hours of the clamp in diabetic pigs. Steady-state conditions were achieved during the last hour of the clamp and steady-state calculations were carried out at (t=240, 255, 270, 285 and 300 minutes).
Hyperinsulinemic hyperglycemic clamp experiments were carried out in diabetic pigs only. After overnight fasting, insulin was given as a prime—(34 mU/kg) continuous (2 mU/kg/minute) infusion for five hours. Simultaneously, a variable infusion of a 33% D-glucose solution was started and adjusted every ten minutes to maintain the plasma glucose concentration at hyperglycemia. Steady-state calculations were carried out during the last hour of the clamp (t=240, 255, 270, 285 and 300 minutes).
6,6-^2H-glucose kinetics: Fasting and insulin-mediated rate of appearance (Ra) of glucose was calculated by dividing the 6,6-^2H-glucose infusion rate (mg/minute) by the plasma 6,6-^2H-glucose enrichment (mg/mg %). Insulin-mediated hepatic glucose production was calculated as measured Ra glucose minus exogenous glucose infusion rate. Under hyperglycemic conditions, the rate of disappearance (Rd) of glucose, or whole body glucose uptake was corrected for urinary glucose excretion. This implies that whole body glucose uptake was calculated as measured Ra glucose minus urinary glucose excretion.

[3] = pigs, STZ 110 mg/kg, 2 mU/kg/minute clamp at euglycemia
[4] = pigs, STZ 110 mg/kg, 2 mU/kg/minute clamp at hyperglycemia
[5] = pigs, STZ 110 mg/kg, clamp at hyperglycemia
[6] = pigs, STZ 130 mg/kg, insulin clamp 2 mU/kg/minute
[7] = pigs, STZ 150 mg/kg, insulin clamp 8 mU/kg/minute

`CN(N=O)C(=O)N[C@H]1C(O)O[C@H](CO)[C@@H](O)[C@@H]1O` (mixture of isomers) [STZ, streptozotocin] was tested, and the “Pigs with overnight fasting plasma glucose <10 mmol/L (no fasting hyperglycemia)” value ([1]; STZ 110 mg/kg BW, one week post STZ) was “two of six”, the Diabetic state ([1]; STZ 130 mg/kg) was “non-ketotic, moderately dyslipidemic, developed severe insulin resistance for glucose metabolism, maintained growth without insulin therapy” and the “Pigs with fasting hyperglycemia (>10 mmol/L)” value ([1]; STZ 130 mg/kg) was 20 of 23. The “Pigs with overnight fasting plasma glucose <10 mmol/L” value ([1]; STZ 130 mg/kg BW, one week post STZ) was “three of 23”, the “Overnight fasting plasma glucose” value ([1]; STZ 150 mg/kg BW, all six pigs, one week post STZ) was greater than 20 mmol/L and the Diabetic state ([1]; STZ 150 mg/kg, all pigs) was “clear hyperglycemic, hypoinsulinemic, and ketotic diabetic state”. The “Fasting urinary glucose excretion (factual)” value ([1]; STZ diabetic pigs fasted overnight, urine collected for eight hours) was 2.3 ± 0.2 mg/kg/min and 2.3 mg/kg/min, the Ketones in urine ([1]; STZ dose of 110 and 130 mg/kg, trace = 0.5 mmol/L) was “no or trace” and the “Predicted fasting urinary glucose excretion” value ([1]; from intercept of linear regression and average body weight) was 2.6 mg/kg/min. The “Fasting 24-hour urinary glucose excretion (intercept of regression)” value ([1]; linear regression y=0.33x+141) was 141 g per day, the “Steady-state glucose infusion rate compared to average in normal pigs” value ([2]; STZ 150 mg/kg, insulin 8 mU/kg/minute) was “approximately eight-fold lower” and the “Fasting plasma insulin compared to normal and diabetic (1.50 mg STZ/kg) pigs” value ([2]; STZ 110 and 130 mg/kg, on average) was “two-fold higher”. For the same molecule, the “Steady-state glucose infusion rates compared to average in normal pigs” value ([2]; STZ 110 to 130 mg/kg, insulin 2 mU/kg/minute) was “five- to six-fold lower”, the “Reduction in insulin action” value ([2]; STZ diabetic pigs) was roughly 75% and the “Fasting plasma insulin, range” value ([2]; diabetic (150 mg STZ/kg) pigs) was 0-6 mU/L. For the same molecule, the “Increase of insulin-mediated whole body glucose disposal at hyperglycemia compared to euglycemia” value ([2]; pigs, STZ 110 mg/kg, 2 mU/kg/minute clamp) was 16%, the Fasting plasma glucose [2, 3] was 22.3 ± 2.1 mmol/L and the “Steady-state clamp glucose infusion rate (insulin-mediated whole body glucose disposal)” value [2, 3] was 5.1 mg/kg/min and 5.1 ± 1.0 mg/kg/min. The “Steady-state clamp plasma glucose” value [2, 3] was 6.0 ± 0.1 mmol/L, the “Steady-state clamp plasma insulin” value [2, 3] was 54 ± 16 mU/L and the “Time to reach euglycemia in diabetic pigs” value (“Time to reach euglycemia” for short) [2, 3] was 139 ± 23 min. The Fasting plasma glucose [2, 4] was 23.0 ± 2.4 mmol/L, the “Insulin-mediated whole body glucose disposal (glucose infusion rate minus urinary glucose excretion)” value [2, 4] was 5.9 mg/kg/min and 5.9 ± 0.8 mg/kg/min and the “Steady-state clamp glucose infusion rate” value [2, 4] was 8.2 ± 0.8*^1) mg/kg/minute. The “Steady-state clamp plasma glucose” value [2, 4] was 22.4 ± 2.6 mmol/L, the “Steady-state clamp plasma insulin” value [2, 4] was 62 ± 19 mU/L and the Fasting plasma insulin ([2]; pigs, STZ 110 mg/kg, clamp at euglycemia) was 17 ± 13 mU/L. The Fasting plasma insulin [2, 5] was 12 ± 5 mU/L, the “Fasting plasma insulin, range” value [2, 5] was “range (3-21) mU/L” and the “Fasting plasma insulin, range” value ([2]; pigs, STZ 130 mg/kg) was 1-38 mU/L. The “Steady-state clamp glucose infusion rate” value [2, 6] was 5.0 ± 1.4 mg/kg/min, the “Steady-state clamp plasma glucose” value [2, 6] was 6.1 ± 0.8 mmol/L and the “Steady-state clamp plasma insulin” value [2, 6] was 45 ± 5 mU/L. The “Time to reach euglycemia” value [2, 6] was 145 ± 22 min, the Fasting plasma glucose ([2]; pigs, STZ 130 mg/kg, insulin clamp 2 mU/kg/minute, with 6,6-2H-glucose infusion, mean ± SEM) was 21.7 ± 1.1 mmol/L and the Fasting plasma insulin ([2]; pigs, STZ 130 mg/kg, insulin clamp 2 mU/kg/minute, mean ± SEM) was 9 mU/L. The Fasting plasma insulin ([2]; pigs, STZ 130 mg/kg, insulin clamp 2 mU/kg/minute, mean ± SEM, listed as Streptozotocin) was 9 ± 7 mU/L, the “Fasting plasma insulin, range” value ([2]; pigs, STZ 130 mg/kg, listed as Streptozotocin) was “range (1-38) mU/L” and the Fasting plasma insulin [2, 7] was 3 ± 1 mU/L. The “Steady-state clamp glucose infusion rate” value [2, 7] was 3.2 ± 1.0 mg/kg/min, the “Steady-state clamp plasma glucose” value [2, 7] was 7.5 ± 0.9 mmol/L and the “Steady-state clamp plasma insulin” value [2, 7] was 228 ± 36 mU/L. The “Time to reach euglycemia” value [2, 7] was 243 ± 21 min, the Fasting plasma glucose ([2]; pigs, STZ 150 mg/kg, insulin clamp 8 mU/kg/minute, no tracer) was 22.0 ± 0.8 mmol/L and the “Overnight fasting plasma glucose compared to normal pigs” value ([2]; three diabetic pig groups (STZ 110, 130 and 150 mg/kg), on average) was “four-fold greater”.
